In this experiment the test system is Prostaglandin E2 (PGE2). As to the kind of experiment: Serum Prostaglandin E2 after 6 weeks subcutaneous infusion of VD in Dahl/SS rats. Type of experiment: in vivo, rat. As to conditions: 4% salt diet. An excerpt: The pharmacodynamic effects of VD were investigated in a rat model. Forty male Dahl/SS rats were shipped to the animal facilities at PhysioGenix, Inc. (Milwaukee, Wis.). The rats were maintained on a low-salt diet and allowed to acclimate. After acclimation, animals had baseline parameters collected while on the low-salt diet. Animals were then randomly assigned to one of 4 groups (10 animals per group):
1. Vehicle Control; low-salt diet, n=10 2. Vehicle Control; 4% salt diet, n=10 3. Vessel dilator, 100 ng/kg/min infusion of VD, 4% salt diet, n=10 4. Vessel dilator, 300 ng/kg/min infusion of VD, 4% salt diet, n=10
Lyophilized VD peptide (Bachem) was reconstituted in a Tris buffer having the same composition as the Tris buffer of Example 1. The vehicle control groups were infused with a citrate-mannitol-saline buffer (0.66 mg/mL citric acid, 6.43 mg/mL sodium citrate, 40 mg/mL mannitol, 9 mg/mL NaCl). The animals were on a Teklad 7034 (low-salt) diet or Dyets AIN-76A 4% salt diet, as indicated, throughout a 6 week course of the study and had free access to water. […]
Alzet® minipumps (Durect, Corp.) were surgically implanted on Days 1, 15, and 29 of the study to maintain continuous vehicle or drug dispensing at the desired dose for a total period of 6 weeks. At the end of 6 weeks, the serum content of Prostaglandin E2 (PGE2) was measured.

Regarding “VD: Vessel Dilator, ANP prohormone a.a. 31-67, EVVPPQVLSEPNEEAGAALSPLPEVPPWTGEVSPAQR (SEQ ID No. 4) (listed as Homo sapiens)”, the “PGE2 concentration in serum versus control groups” value is, setting by setting: (SQ infusion 100 ng/kg·min) “similar”; (SQ infusion 300 ng/kg·min, p<0.05) “significantly higher than for any of the other 3 groups”.

Source of the values: patent US20150038418A1, “NATRIURETIC PEPTIDE COMPOSITIONS AND METHODS OF PREPARATION” (MEDTRONIC, INC., priority 2011, published 2015).
